This assay relates to Punta Toro virus. The assay is described as follows: microbe, parasite or virus in culture. Conditions: Vero, read-out: EC50 Punta Toro virus. In kind it is cell-based.

From article PMC7126999 (Bioorganic & Medicinal Chemistry, 2015) come the findings set out here.

For `NC(=O)c1ncn([C@@H]2O[C@H](CO)[C@@H](O)[C@H]2O)n1` [Ribavirin, ribavirin], the EC50 was 250 µM.
